The values below come from US9393221B2, “Methods and compounds for reducing intracellular lipid storage” (THE GENERAL HOSPITAL CORPORATION, priority 2011, dated 2016).

Counter-ions that a name gives are not always drawn. Bridge positions count the residues as written; N and C are the ends. Square brackets hold non-standard residues; d marks the D form. Peptide text beside a SMILES is read from it. * marks the point of attachment. Ileψ(thiazoline)Cys = CC[C@H](C)[C@H](N)C1=N[C@H](C(=O)*)CS1; dOrn = NCCC[C@@H](N)C(=O)O

One assay relates to ATGL-KO iPSCs. Description: High throughput iPSC chemical screening, Oil Red O (ORO) lipid accumulation. For Z-score: test concentration or dose not given here. Format: cell-based, mouse.
Conditions: not given
`CC(C)(C)CC(C)(C)c1ccc(OCCOCC[N+](C)(C)Cc2ccccc2)cc1` [Benzethonium chloride] had a Z-score of 8.105.

Still in this assay, the particulars now being: glycolytic switch compounds.
With `OC(CCN1CCCCC1)(c1ccccc1)C1CC2C=CC1C2` (stereo not shown) [Biperiden hydrochloride], the “Rank in normalized ORO score from screen” value is reported as 135.
Same read-out and setting: the result for `CC(=O)Oc1ccc(C(c2ccc(OC(C)=O)cc2)c2ccccn2)cc1` [Bisacodyl] reads 791; that for `CCCCOC(=O)c1ccc(O)cc1` [Butylparaben], 23.

The same assay, now with this note: normalized ORO level vs DMSO-treated cells; compound present during 7 days differentiation, 96-well; negative = decrease in lipid accumulation.
On to `CC[C@H](C)[C@H](N)C1=N[C@H](C(=O)N[C@@H](CC(C)C)C(=O)N[C@H](CCC(=O)O)C(=O)N[C@H](C(=O)N[C@H]2CCCCNC(=O)[C@H](CC(N)=O)NC(=O)[C@@H](CC(=O)O)NC(=O)[C@H](Cc3cnc[nH]3)NC(=O)[C@@H](Cc3ccccc3)NC(=O)[C@H]([C@@H](C)CC)NC(=O)[C@@H](CCCN)NC2=O)[C@@H](C)CC)CS1` [Bacitracin] ({Ileψ(thiazoline)Cys}-L[dE]IK[dOrn]I[dF]H[dD]N; lactam 4-C), for which the Z-score is listed as −1.0707.
In turn, `CN(C)C(=O)Oc1cc(OC(=O)N(C)C)cc(C(O)CNC(C)(C)C)c1` (stereo not shown) [Bambuterol hydrochloride] came in with a Z-score of 0.1858.
As to `CCC(=O)OCC(=O)[C@@]1(OC(=O)CC)[C@@H](C)C[C@H]2[C@@H]3CCC4=CC(=O)C=C[C@]4(C)[C@@]3(Cl)[C@@H](O)C[C@@]21C` [Beclomethasone dipropionate], the Z-score was −0.2791.
For the compound `CCC1(C)CC(=O)NC(=O)C1` [Bemegride], the Z-score was −0.3526.
In turn, `NS(=O)(=O)c1cc2c(cc1C(F)(F)F)NC(Cc1ccccc1)NS2(=O)=O` (stereo not shown) [Bendroflumethiazide] came in with a Z-score of 2.297.
Consider `CC(Cc1cccc(C(F)(F)F)c1)NCCOC(=O)c1ccccc1` (stereo not shown) [Benfluorex hydrochloride], for which the Z-score is recorded as −1.1069.
On to `C/C(=C(\CCOP(=O)(O)O)SC(=O)c1ccccc1)N(C=O)Cc1cnc(C)nc1N` [Benfotiamine], for which the Z-score is recorded as −0.7979.
Still for that read-out and setting: the result for `CCCCOc1cc(C(=O)OCCN(CC)CC)ccc1N` [Benoxinate hydrochloride] reads 0.4398; that for `O=C(CCCN1CCC(n2c(O)nc3ccccc32)CC1)c1ccc(F)cc1` [Benperidol], −0.2696.
In the case of `NC(CO)C(=O)NNCc1ccc(O)c(O)c1O` (stereo not shown) [Benserazide hydrochloride], the Z-score is given as −0.638.
Same read-out and setting: as for `NC(=NCc1ccccc1)NC(=O)c1nc(Cl)c(N)nc1N` [Benzamil hydrochloride], the figure is −1.083.
On to `CC1(C)S[C@@H]2[C@H](NC(=O)Cc3ccccc3)C(=O)N2[C@H]1C(=O)O.CC1(C)S[C@@H]2[C@H](NC(=O)Cc3ccccc3)C(=O)N2[C@H]1C(=O)O.c1ccc(CNCCNCc2ccccc2)cc1` [Benzathine benzylpenicillin], for which the Z-score was 0.238.
Take `CCc1oc2ccccc2c1C(=O)c1cc(Br)c(O)c(Br)c1` [Benzbromarone]: the Z-score is −0.349.
`CCOC(=O)c1ccc(N)cc1` [Benzocaine]: the Z-score is reported as 1.149.
The same measure, in the same setting: as for `CCCCNc1ccc(C(=O)OCCOCCOCCOCCOCCOCCOCCOCCOCCOC)cc1` [Benzonatate], the figure is 0.06563; as for `NS(=O)(=O)c1cc2c(cc1Cl)N=C(CSCc1ccccc1)NS2(=O)=O` [Benzthiazide], −1.594; as for `CN(C)CCCOc1nn(Cc2ccccc2)c2ccccc12` [Benzydamine hydrochloride], −0.3467.
On the same count and under the same terms, the result for `CC1(C)S[C@@H]2[C@H](NC(=O)Cc3ccccc3)C(=O)N2[C@H]1C(=O)O` [Benzylpenicillin sodium] reads −0.794; that for `C[N+](C)(CCOc1ccccc1)Cc1ccccc1.O=C([O-])c1cc2ccccc2cc1O` [Bephenium hydroxynaphthoate], −0.5444.
Still for that read-out and setting: the result for `CC(C)COCC(CN(Cc1ccccc1)c1ccccc1)N1CCCC1` (stereo not shown) [Bepridil hydrochloride] reads −1.7961; that for `COc1ccc2cc3[n+](cc2c1OC)CCc1cc2c(cc1-3)OCO2` [Berberine chloride], 12.68; that for `COc1c(O)cc2c(c1O)[C@@H]1O[C@H](CO)[C@@H](O)[C@H](O)[C@H]1OC2=O` [Bergenin monohydrate], −0.7293.
Turning to `CC[C@H](CC[C@@H](C)[C@H]1CC[C@H]2[C@@H]3CC=C4C[C@@H](O)CC[C@]4(C)[C@H]3CC[C@]12C)C(C)C` [Beta-sistosterol], the Z-score is on record as −0.8867.
In turn, `CNCCc1ccccn1.CS(=O)(=O)O.CS(=O)(=O)O` [Betahistine mesylate] came in with a Z-score of 1.556.
On the same count and under the same terms, as for `C[C@H]1C[C@H]2[C@@H]3CCC4=CC(=O)C=C[C@]4(C)[C@@]3(F)[C@@H](O)C[C@]2(C)[C@@]1(O)C(=O)CO` [Betamethasone], the figure is −0.1891; as for `CC(C)NCC(O)COc1ccc(CCOCC2CC2)cc1` (stereo not shown) [Betaxolol hydrochloride], 1.393.
On the same count and under the same terms, the result for `NCCc1cc[nH]n1` [Betazole hydrochloride] reads −0.1702; that for `CC(C[N+](C)(C)C)OC(N)=O` (stereo not shown) [Bethanechol chloride], −0.3853.
Same read-out and setting: the result for `C[N+]1(C)C[C@H](O)C[C@H]1C(=O)[O-]` [Betonicine] reads 0.1235; that for `C=C(C)[C@@H]1CC[C@]2(CO)CC[C@]3(C)[C@H](CC[C@@H]4[C@@]5(C)CC[C@H](O)C(C)(C)[C@@H]5CC[C@]43C)[C@@H]12` [Betulin], −1.4148.
With `C=C(C)[C@@H]1CC[C@]2(C(=O)O)CC[C@]3(C)[C@H](CC[C@@H]4[C@@]5(C)CC[C@H](O)C(C)(C)[C@@H]5CC[C@]43C)[C@@H]12` [Betulinic acid], the Z-score was determined as 0.4119.
Same read-out and setting: as for `CC(C)(Oc1ccc(CCNC(=O)c2ccc(Cl)cc2)cc1)C(=O)O` [Bezafibrate], the figure is −0.2571.
Turning to `CN1CCc2cc3c(cc2[C@H]1[C@@H]1OC(=O)c2c1ccc1c2OCO1)OCO3` [Bicuculline (+)], the Z-score is listed as −0.5556.
As to `O=C(O)CCCC[C@@H]1SC[C@@H]2NC(=O)N[C@@H]21` [Biotin], the Z-score is on record as 0.1016.
In the case of `OC(CCN1CCCCC1)(c1ccccc1)C1CC2C=CC1C2` (stereo not shown) [Biperiden hydrochloride], the Z-score is −1.1752.
The same measure, in the same setting: the result for `CC(=O)Oc1ccc(C(c2ccc(OC(C)=O)cc2)c2ccccn2)cc1` [Bisacodyl] reads 0.477; that for `CC(C)NCC(O)COc1ccc(COCCOC(C)C)cc1` (stereo not shown) [Bisoprolol fumarate], 0.03425; that for `COc1cc2c(cc1O)C[C@H]1c3c(cc(O)c(OC)c3-2)CCN1C` [Boldine], −0.6389.
Same read-out and setting: the result for `CC[N+](C)(C)Cc1ccccc1Br` [Bretylium tosylate] reads 1.9055; that for `CCN[C@H]1CN(CCCOC)S(=O)(=O)c2sc(S(N)(=O)=O)cc21` [Brinzolamide], −0.419; that for `CCN(CC)CCNC(=O)c1cc(Br)c(N)cc1OC` [Bromopride], 0.9486.
On the same count and under the same terms, the result for `O=C(CCCN1CCC(O)(c2ccc(Br)cc2)CC1)c1ccc(F)cc1` [Bromperidol] reads −0.6428.
In turn, `CN(C)CCC(c1ccc(Br)cc1)c1ccccn1` (stereo not shown) [Brompheniramine maleate] came in with a Z-score of 1.885.
As for `CCCC(=O)Nc1ncnc2c1ncn2[C@@H]1O[C@@H]2COP(=O)(O)O[C@H]2[C@H]1OC(=O)CCC` [Bucladesine sodium salt], the Z-score is −0.9927.
Still for that read-out and setting: the result for `CCCC1O[C@@H]2C[C@H]3[C@@H]4CCC5=CC(=O)C=C[C@]5(C)[C@H]4[C@@H](O)C[C@]3(C)[C@]2(C(=O)CO)O1` (stereo partly shown) [Budesonide] reads 19.1411; that for `CCCCOc1ccc(CC(=O)NO)cc1` [Bufexamac], 0.678; that for `COc1cc(OC)c(C(=O)CCCN2CCCC2)c(OC)c1` [Buflomedil hydrochloride], −0.0451.
On to `CCCCNc1cc(C(=O)O)cc(S(N)(=O)=O)c1Oc1ccccc1` [Bumetanide], for which the Z-score is −1.3983.
Still for that read-out and setting: as for `CCCCN1CCCCC1C(=O)Nc1c(C)cccc1C` (stereo not shown) [Bupivacaine hydrochloride], the figure is 0.0187; as for `CC(NC(C)(C)C)C(=O)c1cccc(Cl)c1` (stereo not shown) [Bupropion hydrochloride], 0.7193; as for `O=C1CC2(CCCC2)CC(=O)N1CCCCN1CCN(c2ncccn2)CC1` [Buspirone hydrochloride], −0.0845.
Same read-out and setting: as for `CCCCN(CCCC)CCCOC(=O)c1ccc(N)cc1` [Butacaine], the figure is −0.9284; as for `CCCCOC(=O)c1ccc(N)cc1` [Butamben], 0.2903; as for `Clc1ccc(CCC(Cn2ccnc2)Sc2c(Cl)cccc2Cl)cc1` (stereo not shown) [Butoconazole nitrate], −0.4077.
The same measure, in the same setting: the result for `CCCCOC(=O)c1ccc(O)cc1` [Butylparaben] reads −1.7629; that for `O=C(O)/C=C/c1ccc(O)c(O)c1` [Caffeic acid], −1.7446; that for `C=C1CC[C@H](O)C/C1=C/C=C1\CCC[C@]2(C)[C@@H]([C@H](C)/C=C/[C@H](C)C(C)C)CC[C@@H]12` [Calciferol], 0.2582.
For `CN1CC[C@]23c4ccccc4N[C@H]1[C@]21CCN(C)[C@H]3Nc2ccccc21` [Calycanthine], the Z-score is −0.8381.
For `CC[C@@]1(O)C(=O)OCc2c1cc1n(c2=O)Cc2cc3ccccc3nc2-1` [Camptothecine (S,+)], the Z-score was found to be 21.8871.
On the same count and under the same terms, as for `NC(N)=NOCC[C@H](N)C(=O)O.O.O=S(=O)(O)O` [Canavanine sulfate monohydrate (L,+)], the figure is −0.5687.
On the same count and under the same terms, as for `C[C@]12CCC(=O)C=C1C=C[C@@H]1[C@@H]2CC[C@@]2(C)[C@H]1CC[C@@]2(O)CCC(=O)O` [Canrenoic acid potassium salt], the figure is −0.274.
The same measure, in the same setting: the result for `C[C@@]12C(=O)OC(=O)[C@]1(C)[C@H]1CC[C@@H]2O1` [Cantharidin] reads 18.9862; that for `COc1cc(CNC(=O)CCCC/C=C/C(C)C)ccc1O` [Capsaicin], 0.3383; that for `C[C@H](CS)C(=O)N1CCC[C@H]1C(=O)O` [Captopril], −0.2654.
`C[N+](C)(C)CCOC(N)=O` [Carbachol] yielded a Z-score of 0.7384.
For the compound `NC(=O)N1c2ccccc2C=Cc2ccccc21` [Carbamazepine], the Z-score came out at 0.2892.
